Calls of active or inactive are those of the source. No rule for the calls is given here.
Tested on: CCRIS mutagenicity, Ames/micronucleus/aberration tests
Experiment: CCRIS mutagenicity studies
[1] = Test System: AMES SALMONELLA TYPHIMURIUM, Strain/Indicator: TA100, Metabolic Activation: NONE, Method: PREINCUBATION
[2] = Test System: AMES SALMONELLA TYPHIMURIUM, Strain/Indicator: TA98, Metabolic Activation: NONE, Method: PREINCUBATION
[3] = Test System: AMES SALMONELLA TYPHIMURIUM, Strain/Indicator: TA98, Metabolic Activation: NONE, Method: STANDARD PLATE
[4] = Test System: AMES SALMONELLA TYPHIMURIUM, Strain/Indicator: TA98, Metabolic Activation: RAT, LIVER, S-9, AROCLOR 1254, Method: STANDARD PLATE
[5] = Test System: AMES SALMONELLA TYPHIMURIUM, Strain/Indicator: TA100, Metabolic Activation: NONE, Method: STANDARD PLATE
[6] = Test System: AMES SALMONELLA TYPHIMURIUM, Strain/Indicator: TA100, Metabolic Activation: RAT, LIVER, S-9, AROCLOR 1254, Method: STANDARD PLATE
[7] = Test System: AMES SALMONELLA TYPHIMURIUM, Strain/Indicator: TA1535, Metabolic Activation: NONE, Method: STANDARD PLATE
[8] = Test System: AMES SALMONELLA TYPHIMURIUM, Strain/Indicator: TA1535, Metabolic Activation: RAT, LIVER, S-9, AROCLOR 1254, Method: STANDARD PLATE
[9] = Test System: AMES SALMONELLA TYPHIMURIUM, Strain/Indicator: TA1537, Metabolic Activation: NONE, Method: STANDARD PLATE
[10] = Test System: AMES SALMONELLA TYPHIMURIUM, Strain/Indicator: TA1537, Metabolic Activation: RAT, LIVER, S-9, AROCLOR 1254, Method: STANDARD PLATE
[11] = Test System: AMES SALMONELLA TYPHIMURIUM, Strain/Indicator: TA1538, Metabolic Activation: NONE, Method: STANDARD PLATE
[12] = Test System: AMES SALMONELLA TYPHIMURIUM, Strain/Indicator: TA1538, Metabolic Activation: RAT, LIVER, S-9, AROCLOR 1254, Method: STANDARD PLATE

## CC(C)(C)[N+](=O)[O-]
[1]
  mutagenic call: inactive; negative
Test System: AMES SALMONELLA TYPHIMURIUM, Strain/Indicator: TA100, Metabolic Activation: RAT, LIVER, S-9, AROCLOR, Method: PREINCUBATION
  mutagenic call: inactive; negative
Test System: AMES SALMONELLA TYPHIMURIUM, Strain/Indicator: TA102, Metabolic Activation: NONE, Method: PREINCUBATION
  mutagenic call: inactive; negative
Test System: AMES SALMONELLA TYPHIMURIUM, Strain/Indicator: TA102, Metabolic Activation: RAT, LIVER, S-9, AROCLOR, Method: PREINCUBATION
  mutagenic call: inactive; negative

## C#C[C@]1(OC(=O)CCCCCC)CC[C@H]2[C@@H]3CCC4=CC(=O)CC[C@@H]4[C@H]3CC[C@@]21C
[2]
  mutagenic call: inactive; negative
[3]
  mutagenic call: inactive; negative
Test System: AMES SALMONELLA TYPHIMURIUM, Strain/Indicator: TA98, Metabolic Activation: RAT, LIVER, S-9, AROCLOR 1254, Method: PREINCUBATION
  mutagenic call: inactive; negative
[4]
  mutagenic call: inactive; negative
[1]
  mutagenic call: inactive; negative
[5]
  mutagenic call: inactive; negative
Test System: AMES SALMONELLA TYPHIMURIUM, Strain/Indicator: TA100, Metabolic Activation: RAT, LIVER, S-9, AROCLOR 1254, Method: PREINCUBATION
  mutagenic call: inactive; negative
[6]
  mutagenic call: inactive; negative
Test System: AMES SALMONELLA TYPHIMURIUM, Strain/Indicator: TA1535, Metabolic Activation: NONE, Method: PREINCUBATION
  mutagenic call: inactive; negative
[7]
  mutagenic call: inactive; negative
Test System: AMES SALMONELLA TYPHIMURIUM, Strain/Indicator: TA1535, Metabolic Activation: RAT, LIVER, S-9, AROCLOR 1254, Method: PREINCUBATION
  mutagenic call: inactive; negative
[8]
  mutagenic call: inactive; negative
Test System: AMES SALMONELLA TYPHIMURIUM, Strain/Indicator: TA1537, Metabolic Activation: NONE, Method: PREINCUBATION
  mutagenic call: inactive; negative
[9]
  mutagenic call: inactive; negative
Test System: AMES SALMONELLA TYPHIMURIUM, Strain/Indicator: TA1537, Metabolic Activation: RAT, LIVER, S-9, AROCLOR 1254, Method: PREINCUBATION
  mutagenic call: inactive; negative
[10]
  mutagenic call: inactive; negative
Test System: AMES SALMONELLA TYPHIMURIUM, Strain/Indicator: TA1538, Metabolic Activation: NONE, Method: PREINCUBATION
  mutagenic call: inactive; negative
[11]
  mutagenic call: inactive; negative
Test System: AMES SALMONELLA TYPHIMURIUM, Strain/Indicator: TA1538, Metabolic Activation: RAT, LIVER, S-9, AROCLOR 1254, Method: PREINCUBATION
  mutagenic call: inactive; negative
[12]
  mutagenic call: inactive; negative

## CC(=O)c1ccccn1
Test System: AMES SALMONELLA TYPHIMURIUM, Strain/Indicator: TA98, Metabolic Activation: HAMSTER, LIVER, S-9, AROCLOR 1254, Method: STANDARD PLATE
  mutagenic call: inactive; negative
[3]
  mutagenic call: inactive; negative
[4]
  mutagenic call: inactive; negative
Test System: AMES SALMONELLA TYPHIMURIUM, Strain/Indicator: TA100, Metabolic Activation: HAMSTER, LIVER, S-9, AROCLOR 1254, Method: STANDARD PLATE
  mutagenic call: inactive; negative
[5]
  mutagenic call: inactive; negative
[6]
  mutagenic call: inactive; negative
Test System: AMES SALMONELLA TYPHIMURIUM, Strain/Indicator: TA1535, Metabolic Activation: HAMSTER, LIVER, S-9, AROCLOR 1254, Method: STANDARD PLATE
  mutagenic call: inactive; negative
[7]
  mutagenic call: inactive; negative
[8]
  mutagenic call: inactive; negative
Test System: AMES SALMONELLA TYPHIMURIUM, Strain/Indicator: TA1537, Metabolic Activation: HAMSTER, LIVER, S-9, AROCLOR 1254, Method: STANDARD PLATE
  mutagenic call: inactive; negative
[9]
  mutagenic call: inactive; negative
[10]
  mutagenic call: inactive; negative
Test System: AMES SALMONELLA TYPHIMURIUM, Strain/Indicator: TA1538, Metabolic Activation: HAMSTER, LIVER, S-9, AROCLOR 1254, Method: STANDARD PLATE
  mutagenic call: inactive; negative
[11]
  mutagenic call: inactive; negative
[12]
  mutagenic call: inactive; negative
Test System: MOUSE LYMPHOMA, Strain/Indicator: L5178Y (TK+/TK-), Metabolic Activation: NONE, Method: SUSPENSION/PLATE
  mutagenic call: active; positive. reevaluation of results: positive
Test System: MOUSE LYMPHOMA, Strain/Indicator: L5178Y (TK+/TK-), Metabolic Activation: RAT, LIVER, S-9, AROCLOR 1254, Method: SUSPENSION/PLATE
  mutagenic call: active; positive. reevaluation of results: inconclusive

## O=C(Cl)c1ccc(Cl)cc1Cl
[2]
  mutagenic call: inactive; negative
Test System: AMES SALMONELLA TYPHIMURIUM, Strain/Indicator: TA98, Metabolic Activation: RAT LIVER S-9, PCB, Method: PREINCUBATION
  mutagenic call: active; positive
[1]
  mutagenic call: inactive; negative
Test System: AMES SALMONELLA TYPHIMURIUM, Strain/Indicator: TA100, Metabolic Activation: RAT LIVER S-9, PCB, Method: PREINCUBATION
  mutagenic call: active; positive
Test System: AMES SALMONELLA TYPHIMURIUM, Strain/Indicator: TA104, Metabolic Activation: NONE, Method: PREINCUBATION
  mutagenic call: inactive; negative
Test System: AMES SALMONELLA TYPHIMURIUM, Strain/Indicator: TA104, Metabolic Activation: RAT LIVER S-9, PCB, Method: PREINCUBATION
  mutagenic call: active; positive
Test System: Ames Salmonella typhimurium, Strain/Indicator: TA98, Metabolic Activation: None, Method: Preincubation
  mutagenic call: inactive; negative
Test System: Ames Salmonella typhimurium, Strain/Indicator: TA98, Metabolic Activation: Rat, Liver, S9, Sodium phenobarbital and 5,6-benzoflavone, Method: Preincubation
  mutagenic call: inactive; negative
Test System: Ames Salmonella typhimurium, Strain/Indicator: TA100, Metabolic Activation: None, Method: Preincubation
  mutagenic call: inactive; negative
Test System: Ames Salmonella typhimurium, Strain/Indicator: TA100, Metabolic Activation: Rat, Liver, S9, Sodium phenobarbital and 5,6-benzoflavone, Method: Preincubation
  mutagenic call: inactive; negative
Test System: Ames Salmonella typhimurium, Strain/Indicator: TA1535, Metabolic Activation: None, Method: Preincubation
  mutagenic call: inactive; negative
Test System: Ames Salmonella typhimurium, Strain/Indicator: TA1535, Metabolic Activation: Rat, Liver, S9, Sodium phenobarbital and 5,6-benzoflavone, Method: Preincubation
  mutagenic call: inactive; negative
Test System: Ames Salmonella typhimurium, Strain/Indicator: TA1537, Metabolic Activation: None, Method: Preincubation
  mutagenic call: inactive; negative
Test System: Ames Salmonella typhimurium, Strain/Indicator: TA1537, Metabolic Activation: Rat, Liver, S9, Sodium phenobarbital and 5,6-benzoflavone, Method: Preincubation
  mutagenic call: inactive; negative
Test System: E. coli, Strain/Indicator: WP2uvrA/pKM101, Metabolic Activation: None, Method: Preincubation
  mutagenic call: inactive; negative
Test System: E. coli, Strain/Indicator: WP2uvrA/pKM101, Metabolic Activation: Rat, Liver, S9, Sodium phenobarbital and 5,6-benzoflavone, Method: Preincubation
  mutagenic call: inactive; negative
Test System: E.COLI, Strain/Indicator: WP2 UVRA, Metabolic Activation: NONE, Method: PREINCUBATION
  mutagenic call: inactive; negative
Test System: E.COLI, Strain/Indicator: WP2 UVRA, Metabolic Activation: RAT LIVER S-9, PCB, Method: PREINCUBATION
  mutagenic call: inactive; negative
